Results: patent publication US12708608B2, “Methods of treating schizophrenia and other neuropsychiatric disorders” (UNIVERSITY OF ROCHESTER, priority 2018, dated 2026)
Entries after “also recorded” stand apart in the source; their conditions may differ. Where two headings read alike, the source gives them in different places.

Legend:
Format in all cases: cell-based, human
[1] = system: REST shRNAi-transduced SCZ astrocytes; test: Potassium (86Rb) uptake by SCZ astrocytes with REST knockdown
SCZ astrocytes = test: Potassium (86Rb) uptake by schizophrenia-derived astrocytes; conditions: 4 SCZ lines, drug-treated
Procedure: Potassium uptake Astrocytes were plated onto poly-ornithine- and laminin-coated 24-well plates with 30,000 cells/well. For the potassium uptake assay, astrocytes were incubated with ^86Rb (1.0-3.3 uCi/well) for 15 min, and then they were washed three time with ice-cold artificial cerebrospinal fluid (aCSF, 500 μL/well). For cell lysis, 0.5N NaOH (200 μL/well) was put into each well, which was put into 5 ml cocktail liquid (Ultima Gold, Fisher Scientific, 509050575) and measured by scintillation counter (Beckman Coulter, LS6500), and the results were normalized to both total protein (BCA Protein Assay Kit, Fisher Scientific, 23227) and cell number (Hemocytometer, Fisher Scientific, 02-671-54). […]
Next, functional K^+ uptake was assessed directly, in cultured SCZ- and CTR-derived astrocytes. […] Astrocytes from 4 different SCZ and 4 different CTR lines were then incubated with ^86Rb, a surrogate monovalent cation for K^+ uptake (Larsen et al., “Contributions of the Na(+)/K(+)-ATPase, NKCC1, and Kir4.1 to Hippocampal K(+) Clearance and Volume Responses,” Glia 62:608-622 (2014), which is hereby incorporated by reference in its entirety), and rubidium uptake measured as a function of both cell number and total protein.
To test this postulate, lentivirus was used to overexpress REST in CTR glial cells, and K^+ uptake by the transduced cells was assessed.

CTR astrocytes = test: Potassium (86Rb) uptake by control-derived astrocytes; conditions: 4 CTR lines, drug-treated
Procedure: Potassium uptake Astrocytes were plated onto poly-ornithine- and laminin-coated 24-well plates with 30,000 cells/well. For the potassium uptake assay, astrocytes were incubated with ^86Rb (1.0-3.3 uCi/well) for 15 min, and then they were washed three time with ice-cold artificial cerebrospinal fluid (aCSF, 500 μL/well). For cell lysis, 0.5N NaOH (200 μL/well) was put into each well, which was put into 5 ml cocktail liquid (Ultima Gold, Fisher Scientific, 509050575) and measured by scintillation counter (Beckman Coulter, LS6500), and the results were normalized to both total protein (BCA Protein Assay Kit, Fisher Scientific, 23227) and cell number (Hemocytometer, Fisher Scientific, 02-671-54). The aCSF solution contained (in mM) 124 NaCl, 2.5 KCl, 1.75 NaH2PO4, 2 MgCl2, 2 CaCl2, 0.04 Vit.C, 10 glucose and 26 NaHCO3, pH 7.4.
Next, functional K^+ uptake was assessed directly, in cultured SCZ- and CTR-derived astrocytes. To obtain mature SCZ and CTR astrocyte cultures, CD44-sorted astrocyte-biased progenitors were cultured in base media supplemented with 10% fetal bovine serum (FBS) and 20 ng/ml BMP4 for 3 weeks, so as to potentiate the differentiation of mature, glial fibrillary acidic protein (GFAP)-expressing, fiber-bearing astrocytes (FIGS. 5A-5C). […] Astrocytes from 4 different SCZ and 4 different CTR lines were then incubated with ^86Rb, a surrogate monovalent cation for K^+ uptake (Larsen et al., “Contributions of the Na(+)/K(+)-ATPase, NKCC1, and Kir4.1 to Hippocampal K(+) Clearance and Volume Responses,” Glia 62:608-622 (2014), which is hereby incorporated by reference in its entirety), and rubidium uptake measured as a function of both cell number and total protein.

[2] = system: REST-overexpressing CTR astrocytes; test: Potassium (86Rb) uptake by CTR astrocytes transduced to over-express REST

Compound | K+ uptake by SCZ glia with REST knockdown ([1]; 86Rb uptake, REST shRNAi-transduced SCZ astrocytes, drug-treated) | K+ uptake by SCZ astrocytes (SCZ astrocytes) | K+ uptake by CTR astrocytes (CTR astrocytes) | K+ uptake by REST-overexpressing CTR astrocytes ([2]; 86Rb uptake, lentiviral-REST transduced CTR astrocytes, drug-treated) | K+ uptake by SCZ glia with REST knockdown [1] | K+ uptake by CTR astrocytes (CTR astrocytes; listed as Ouabain) | K+ uptake by REST-overexpressing CTR astrocytes [2]
CCCCNc1cc(C(=O)O)cc(S(N)(=O)=O)c1Oc1ccccc1 [bumetanide] | significantly reduced; also recorded: significantly inhibited | neither ouabain nor bumetanide affected; also recorded: neither affected | significantly inhibited; also recorded: efficiently decreased | Neither ouabain nor bumetanide further decreased |  |  | 
C[C@@H]1O[C@@H](O[C@H]2C[C@@H](O)[C@]3(CO)[C@H]4[C@H](O)C[C@]5(C)[C@@H](C6=CC(=O)OC6)CC[C@]5(O)[C@@H]4CC[C@]3(O)C2)[C@H](O)[C@H](O)[C@H]1O [ouabain] |  | neither ouabain nor bumetanide affected; also recorded: neither affected | significantly inhibited; also recorded: efficiently decreased |  | significantly reduced; also recorded: significantly inhibited | significantly inhibited | Neither ouabain nor bumetanide further decreased
tertiapin (ALCNCNRIIIPHMCWKKCGKK; UniProt P56587 1-21, looked up) [drug which targets Kir (inwardly rectifying K+) channels] |  |  | did not |  |  |  | 
